Reference: ChEMBL document CHEMBL3621186, “Design, synthesis and antitumor activity of non-camptothecin topoisomerase I inhibitors” (Bioorg Med Chem Lett, 2015)
Active and inactive are the calls of the source. The rule behind the calls is not given here.

Columns and labels:
[1] = tested on: U-87 MG; assay: Cytotoxicity against human U87MG cells assessed as inhibition of cell proliferation at 10 uM by MTT assay relative to control; type: functional, U-87MG ATCC
[2] = tested on: HCT-116; assay: Cytotoxicity against human HCT116 cells assessed as inhibition of cell proliferation at 10 uM by MTT assay relative to control; type: functional
[3] = tested on: PC-3; assay: Cytotoxicity against human PC3 cells assessed as inhibition of cell proliferation at 10 uM by MTT assay relative to control; type: functional
[4] = tested on: SK-OV-3; assay: Cytotoxicity against human SKOV3 cells assessed as inhibition of cell proliferation at 10 uM by MTT assay relative to control; type: functional
[5] = tested on: HepG2; assay: Cytotoxicity against human HepG2 cells assessed as inhibition of cell proliferation at 10 uM by MTT assay relative to control; type: functional
[6] = tested on: PC-3; assay: Cytotoxicity against human PC3 cells assessed as inhibition of cell proliferation by MTT assay; type: functional, cell-based
[7] = tested on: SK-OV-3; assay: Cytotoxicity against human SKOV3 cells assessed as inhibition of cell proliferation by MTT assay; type: functional, cell-based
[8] = molecular target: T1, DNA topoisomerase 1 (Homo sapiens) (UniProt P11387); assay: Inhibition of recombinant human DNA topoisomerase-1 assessed as relaxation of supercoiled pBR322 DNA at 50 uM after 30 mins by agarose gel electrophoresis
T1 sequence (whole entry): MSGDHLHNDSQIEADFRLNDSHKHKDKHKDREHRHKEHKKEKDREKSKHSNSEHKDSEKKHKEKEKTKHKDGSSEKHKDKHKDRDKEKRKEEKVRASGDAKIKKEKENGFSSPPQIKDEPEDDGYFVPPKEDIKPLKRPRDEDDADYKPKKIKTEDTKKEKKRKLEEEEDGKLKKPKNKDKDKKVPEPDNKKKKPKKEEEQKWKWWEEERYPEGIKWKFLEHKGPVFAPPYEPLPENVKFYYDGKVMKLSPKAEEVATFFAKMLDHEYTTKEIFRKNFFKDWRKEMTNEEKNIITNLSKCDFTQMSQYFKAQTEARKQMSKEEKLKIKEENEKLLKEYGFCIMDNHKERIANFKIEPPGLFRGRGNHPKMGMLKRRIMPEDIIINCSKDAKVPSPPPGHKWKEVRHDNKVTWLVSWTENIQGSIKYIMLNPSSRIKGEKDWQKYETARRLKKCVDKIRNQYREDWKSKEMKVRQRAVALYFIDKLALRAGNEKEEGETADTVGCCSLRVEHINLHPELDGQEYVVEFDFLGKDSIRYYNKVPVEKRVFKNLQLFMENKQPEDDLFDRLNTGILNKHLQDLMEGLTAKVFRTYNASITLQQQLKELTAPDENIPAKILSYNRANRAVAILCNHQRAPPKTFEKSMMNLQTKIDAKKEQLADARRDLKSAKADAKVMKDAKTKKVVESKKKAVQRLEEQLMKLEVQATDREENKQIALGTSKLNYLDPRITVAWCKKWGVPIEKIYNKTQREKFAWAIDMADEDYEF

[9] = tested on: HCT-116; assay: Cytotoxicity against human HCT116 cells assessed as inhibition of cell proliferation by MTT assay; type: functional, cell-based
[10] = tested on: HepG2; assay: Cytotoxicity against human HepG2 cells assessed as inhibition of cell proliferation by MTT assay; type: functional, cell-based
[11] = tested on: U-87 MG; assay: Cytotoxicity against human U87MG cells assessed as inhibition of cell proliferation by MTT assay; type: functional, cell-based, U-87MG ATCC

| SMILES | inhibition at 10 µM [1] [%] | inhibition at 10 µM [2] [%] | inhibition at 10 µM [3] [%] | inhibition at 10 µM [4] [%] | inhibition at 10 µM [5] [%] | IC50 [6] [nM] | IC50 [7] [nM] | inhibition [8] | IC50 [9] [nM] | IC50 [10] [nM] | IC50 [11] [nM] |
| --- | --- | --- | --- | --- | --- | --- | --- | --- | --- | --- | --- |
| O=C1c2ccccc2-c2nc3ncccc3nc21 | -23.3 | 1.49 | 36.2 | 2.89 | 15.2 | – | – | – | – | – | – |
| COc1ccc2nc3c(nc2c1)C(=O)c1ccccc1-3 | -14.4 | 8.68 | -4.44 | 8.07 | 14.7 | – | – | – | – | – | – |
| CN(C)CCCNC(=O)C1c2c(ccc(Br)c2O)-n2c(=O)c3ccccc3c(=O)n21 (stereo not given) | -2.5 | -5.7 | 6.4 | -4.1 | -7.99 | – | – | – | – | – | – |
| O=C(NCCO)C1c2c(O)cccc2-n2c(=O)c3ccccc3c(=O)n21 (stereo not given) | -0.6 | -0.6 | 5 | -7.14 | -0.87 | – | – | – | – | – | – |
| CCOC(=O)C1C2=C(CCCC2=O)n2c(=O)c3ccccc3c(=O)n21 (stereo not given) | 1.5 | 3.5 | 11.1 | -4.89 | 12 | – | – | – | – | – | – |
| CN(C)CCNC(=O)C1c2c(ccc(Br)c2O)-n2c(=O)c3ccccc3c(=O)n21 (stereo not given) | 0.1 | -5.8 | 14.3 | -6.16 | 3.89 | – | – | – | – | – | – |
| CCOC(=O)C1c2c(O)cccc2-n2c(=O)c3ccccc3c(=O)n21 (stereo not given) | 1.9 | 0.4 | 4.9 | -3.97 | 11.2 | – | – | – | – | – | – |
| O=C1c2ccccc2-c2nc3ccc(C(F)(F)F)cc3nc21 | -15.6 | 17.2 | 15.9 | 14.2 | 43.8 | – | – | – | – | – | – |
| COc1ccc2nc3c(nc2c1)-c1ccccc1C3=O | -7.74 | 16.9 | -1.15 | -7.19 | 6.56 | – | – | – | – | – | – |
| O=C1c2ccccc2-c2nc3cc(C(F)(F)F)ccc3nc21 | -7.67 | 12.2 | -1.15 | -0.82 | 42.9 | – | – | – | – | – | – |
| O=C(NCCO)C1c2c(ccc(Br)c2O)-n2c(=O)c3ccccc3c(=O)n21 (stereo not given) | 0.4 | 3.7 | 6.5 | -4.34 | 15.1 | – | – | – | – | – | – |
| O=C(NCCCO)C1c2c(ccc(Br)c2O)-n2c(=O)c3ccccc3c(=O)n21 (stereo not given) | -4.7 | 5.4 | 5.3 | -4.25 | -8.92 | – | – | – | – | – | – |
| O=C1c2ccccc2-c2nc3ccccc3nc21 | -14.5 | -1.83 | -8.39 | 10.1 | 53.2 | – | – | – | – | – | – |
| CN(C)CCCNC(=O)C1c2c(O)cccc2-n2c(=O)c3ccccc3c(=O)n21 (stereo not given) | -4.7 | -4.5 | 11.1 | -4.01 | -8.92 | – | – | – | – | – | – |
| CN(C)CCCn1c2c(c3c4ccccc4c(O)cc31)C(=O)c1ccccc1C2=O | 86 | 91.2 | 59.6 | 77.4 | 88 | 612 | 783 | Active | 996 | 1970 | 325 |
| O=C1c2ccccc2-c2nc3cc(F)ccc3nc21 | -13.2 | 22.7 | 2.65 | 9.6 | 50.5 | – | – | – | – | – | – |
| COc1ccc2[nH]c3c(c2c1)C(=O)c1ccccc1C3=O | 49 | 76.2 | 8.56 | 57.6 | 26.6 | – | – | – | – | – | – |
| O=C(NCCCO)C1c2c(O)cccc2-n2c(=O)c3ccccc3c(=O)n21 (stereo not given) | 2.4 | -3.8 | 7.6 | -5.15 | -3.15 | – | – | – | – | – | – |
| O=C1c2ccccc2-c2nc3cccnc3nc21 | 20.8 | 71.9 | 52.7 | 13.2 | 55.4 | 4380 | – | – | 44600 | 33800 | – |
| CN(C)CCn1c2c(c3c4ccccc4c(O)cc31)C(=O)c1ccccc1C2=O | 78.8 | 92 | 66.5 | 82.4 | 88.2 | 389 | 1010 | Active | 706 | 844 | 169 |
| CCOC(=O)C1c2c(ccc(Br)c2O)-n2c(=O)c3ccccc3c(=O)n21 (stereo not given) | 4.1 | 3.3 | 0.8 | -3.43 | 2.54 | – | – | – | – | – | – |
| Cc1ccc2nc3c(nc2c1)C(=O)c1ccccc1-3 | -13.9 | 6.32 | -8.92 | 11.2 | 6.44 | – | – | – | – | – | – |
| O=C1c2ccccc2-c2nc3cc4ccccc4cc3nc21 | -11.5 | 7.32 | 11.8 | -8.16 | 2.82 | – | – | – | – | – | – |
| CN(C)CCNC(=O)C1c2c(O)cccc2-n2c(=O)c3ccccc3c(=O)n21 (stereo not given) | 1.1 | -4.2 | 4 | -1.46 | -2.82 | – | – | – | – | – | – |
